{"source": "patent US8440830B2", "about": "“Tetrahydro-fused pyridines as histone deacetylase inhibitors” (4SC AG, priority 2007, dated 2013)", "note": "Structures can show the parent of a compound that is named as a salt."}
{"system": "A549 NSCLC cells", "test": "Cellular cytotoxicity assay (Alamar Blue), A549", "type": "cell-based", "conditions": "Homo sapiens, 72 h, upper end given as ≧100, read-out: IC50 (μM), cytotoxicity towards A549 NSCLC cells", "method": "The anti-proliferative activity of the histone deacetylase inhibitory compounds as described herein, is evaluated using the following cell lines: HeLa and HeLa-KB (cervical carcinoma), H460 (non small cell lung cancer), A549 (non-small cell lung cancer), MCF7 (breast carcinoma), MCF10A (normal, non tumorigenic breast epithelial), MDA-MB468 (breast carcinoma), MDA-MB435 (breast carcinoma), MDA-MB231 (breast carcinoma), SKBR-3 (breast carcinoma), SKOV-3 (ovarial carcinoma), A-2780 (ovarial carcinoma), RKO (colon carcinoma), HCT-15 (colon carcinoma), HCT-116 (colon carcinoma), PC3 (prostate carcinoma), BPH1 (benign prostate hyperplasia), AsPC1 (pancreatic carcinoma), Ca127 (tongue carcinoma), A-431 (vulva carcinoma), Hec1A (endometrial carcinoma), Saos-2 (osteosarcoma), U87MG (glioblastoma), WM266-4 (melanoma), K562 (chronic myeloid leukemia), EOL1 (acute hypereosinophilic myeloid leukemia), CCRF-CEM and CCRF-CEM VCR1000 (acute lymphoblastic leukemia sensitive and resistant towards Vincristine). For quantification of cellular proliferation/living cells the Alamar Blue (Resazurin) cell viability assay is applied (O'Brien et al. Eur J Biochem 267, 5421-5426, 2000). In this assay Resazurin is reduced to the fluorescent resorufine by cellular dehydrogenase activity, correlating with viable, proliferating cells. The examples are dissolved as 20 mM solutions in dimethylsulfoxide (DMSO) and subsequently diluted in semi-logarithmic steps. Cell lines are seeded at respective density into 96 well flat bottom plates in a volume of 200 μl per well. 24 h after seeding 1 μl each of the compound dilutions are added into each well of the 96 well plate. Each compound dilution is tested as quadruplicates. Wells containing untreated control cells are filled with 200 μl DMEM medium containing 0.5% v:v DMSO. The cells are then incubated with the compounds for 72 h at 37° C. in a humidified atmosphere containing 5% carbon dioxide. To determine the viability of the cells, 20 μl of a Resazurin solution (Sigma; 90 mg/l) are added. After 4 h incubation at 37° C. the fluorescence is measured at an extinction of λ=544 nm and an emission of λ=590 nm. For the calculation of the cell viability the emission value from untreated cells is set as 100% viability and the emission rates of treated cells are set in relation to the values of untreated cells. Viabilities are expressed as % values. The corresponding IC50 values of the compounds for cytotoxic activity are determined from the concentration-effect curves by means of non-linear regression.", "units": {"IC50": "µM"}}
{"smiles": "Nc1ccccc1NC(=O)c1nc2c(s1)CN(C(=O)c1ccc(-c3ccccc3)cc1)CC2", "note": "[Example 88, N-(2-aminophenyl)-5-(biphenyl-4-ylcarbonyl)-4,5,6,7-tetrahydro[1,3]thiazolo[5,4-c]pyridine-2-carboxamide]", "IC50": "≥ 0.2"}
{"smiles": "Cc1ccc(C(=O)N2CCc3nc(C(=O)Nc4ccccc4N)sc3C2)cc1", "note": "[Example 89, N-(2-aminophenyl)-5-(4-methylbenzoyl)-4,5,6,7-tetrahydro[1,3]thiazolo[5,4-c]pyridine-2-carboxamide]", "IC50": "≥ 0.2"}
{"smiles": "COC(=O)c1ccc(C(=O)N2CCc3nc(C(=O)Nc4ccccc4N)sc3C2)cc1", "note": "[Example 90, Methyl 4-({2-[(2-aminophenyl)carbamoyl]-6,7-dihydro[1,3]thiazolo[5,4-c]pyridin-5(4H)-yl}carbonyl)benzoate]", "IC50": "≥ 0.2"}
{"smiles": "CN(C)c1ccc(C(=O)N2CCc3nc(C(=O)Nc4ccccc4N)sc3C2)cc1", "note": "[Example 91, N-(2-aminophenyl)-5-[4-(dimethylamino)benzoyl]-4,5,6,7-tetrahydro[1,3]thiazolo[5,4-c]pyridine-2-carboxamide]", "IC50": "≥ 0.2"}
{"smiles": "COc1ccc(C(=O)N2CCc3nc(C(=O)Nc4ccccc4N)sc3C2)cc1", "note": "[Example 93, N-(2-aminophenyl)-5-(4-methoxybenzoyl)-4,5,6,7-tetrahydro[1,3]thiazolo[5,4-c]pyridine-2-carboxamide]", "IC50": "≥ 0.2"}
{"smiles": "Nc1ccccc1NC(=O)c1nc2c(s1)CN(C(=O)c1cnc3ccccc3c1)CC2", "note": "[Example 94, N-(2-aminophenyl)-5-(quinolin-3-ylcarbonyl)-4,5,6,7-tetrahydro[1,3]thiazolo[5,4-c]pyridine-2-carboxamide]", "IC50": "≥ 0.2"}
{"smiles": "Nc1ccccc1NC(=O)c1nc2c(s1)CN(C(=O)c1ccc3ccccc3c1)CC2", "note": "[Example 95, N-(2-aminophenyl)-5-(2-naphthoyl)-4,5,6,7-tetrahydro[1,3]thiazolo[5,4-c]-pyridine-2-carboxamide]", "IC50": "≥ 0.2"}
{"smiles": "CN(C)c1cccc(C(=O)N2CCc3nc(C(=O)Nc4ccccc4N)sc3C2)c1", "note": "[Example 97, N-(2-aminophenyl)-5-[3-(dimethylamino)benzoyl]-4,5,6,7-tetrahydro[1,3]thiazolo[5,4-c]pyridine-2-carboxamide]", "IC50": "≥ 0.2"}
{"smiles": "Nc1ccccc1NC(=O)c1nc2c(s1)CN(C(=S)Nc1ccccc1)CC2", "note": "[Example 98, N-(2-aminophenyl)-5-(anilinocarbonothioyl)-4,5,6,7-tetrahydro[1,3]thiazolo[5,4-c]pyridine-2-carboxamide]", "IC50": "≥ 0.2"}
{"smiles": "CN(C)c1ccc(NC(=S)N2CCc3nc(C(=O)Nc4ccccc4N)sc3C2)cc1", "note": "[Example 99, N-(2-aminophenyl)-5-({[4-(dimethylamino)phenyl]amino}carbonothioyl)-4,5,6,7-tetrahydro[1,3]thiazolo[5,4-c]pyridine-2-carboxamide]", "IC50": "≥ 0.2"}
{"smiles": "Nc1ccccc1NC(=O)c1nc2c(s1)CN(C(=S)NC1CCNCC1)CC2", "note": "[Example 100, N-(2-aminophenyl)-5-[(piperidin-4-ylamino)carbonothioyl]-4,5,6,7-tetrahydro[1,3]thiazolo[5,4-c]pyridine-2-carboxamide]", "IC50": "≥ 0.2"}
{"smiles": "Nc1ccccc1NC(=O)c1nc2c(s1)CN(C(=S)NC1CCC(c3cccnc3)CC1)CC2", "note": "(centres unmarked) [Example 101, N-(2-aminophenyl)-5-{[(4-pyridin-3-ylcyclohexyl)amino]carbonothioyl}-4,5,6,7-tetrahydro[1,3]thiazolo[5,4-c]pyridine-2-carboxamide]", "IC50": "≥ 0.2"}
{"smiles": "COc1ccc(N)c(NC(=O)c2nc3c(s2)CN(C(=S)Nc2ccccc2)CC3)c1", "note": "[Example 102, N-(2-amino-5-methoxyphenyl)-5-(anilinocarbonothioyl)-4,5,6,7-tetrahydro[1,3]thiazolo[5,4-c]pyridine-2-carboxamide]", "IC50": "≥ 0.2"}
{"smiles": "Nc1ccccc1NC(=O)c1nc2c(s1)CN(C(=S)Nc1cccnc1)CC2", "note": "[Example 103, N-(2-aminophenyl)-5-[(pyridin-3-ylamino)carbonothioyl]-4,5,6,7-tetrahydro[1,3]thiazolo[5,4-c]pyridine-2-carboxamide]", "IC50": "≥ 0.2"}
{"smiles": "Nc1ccccc1NC(=O)c1nc2c(s1)CN(C(=S)Nc1cccc3cnccc13)CC2", "note": "[Example 104, N-(2-aminophenyl)-5-[(isoquinolin-5-ylamino)carbonothioyl]-4,5,6,7-tetrahydro[1,3]thiazolo[5,4-c]pyridine-2-carboxamide]", "IC50": "≥ 0.2"}
{"smiles": "CCCCNC(=S)N1CCc2nc(C(=O)Nc3ccccc3N)sc2C1", "note": "[Example 105]", "IC50": "≥ 0.2"}
{"smiles": "COc1ccc(NC(=S)N2CCc3nc(C(=O)Nc4cc(OC)ccc4N)sc3C2)cc1", "note": "[Example 106, N-(2-amino-5-methoxyphenyl)-5-{[(4-methoxyphenyl)amino]carbonothioyl}-4,5,6,7-tetrahydro[1,3]thiazolo[5,4-c]pyridine-2-carboxamide]", "IC50": "≥ 0.2"}
{"smiles": "COc1ccc(N)c(NC(=O)c2nc3c(s2)CN(C(=S)Nc2cccnc2)CC3)c1", "note": "[Example 107, N-(2-amino-5-methoxyphenyl)-5-[(pyridin-3-ylamino)carbonothioyl]-4,5,6,7-tetrahydro[1,3]thiazolo[5,4-c]pyridine-2-carboxamide]", "IC50": "≥ 0.2"}
{"smiles": "CC(C)c1ccc(N)c(NC(=O)c2nc3c(s2)CN(C(=S)Nc2cccnc2)CC3)c1", "note": "[Example 108, N-(2-amino-5-isopropylphenyl)-5-[(pyridin-3-ylamino)carbonothioyl]-4,5,6,7-tetrahydro[1,3]thiazolo[5,4-c]pyridine-2-carboxamide]", "IC50": "≥ 0.2"}
{"smiles": "CC(C)c1ccc(N)c(NC(=O)c2nc3c(s2)CN(C(=S)Nc2ccccc2)CC3)c1", "note": "[Example 109, N-(2-amino-5-isopropylphenyl)-5-(anilinocarbonothioyl)-4,5,6,7-tetrahydro[1,3]thiazolo[5,4-c]pyridine-2-carboxamide]", "IC50": "≥ 0.2"}
{"smiles": "COc1ccc(NC(=S)N2CCc3nc(C(=O)Nc4cc(C(C)C)ccc4N)sc3C2)cc1", "note": "[Example 110, N-(2-amino-5-isopropylphenyl)-5-{[(4-methoxyphenyl)amino]carbonothioyl}-4,5,6,7-tetrahydro[1,3]thiazolo[5,4-c]pyridine-2-carboxamide]", "IC50": "≥ 0.2"}
{"smiles": "COc1ccc(NC(=N)N2CCc3nc(C(=O)Nc4ccccc4N)sc3C2)cc1", "note": "[Example 111, N-(2-aminophenyl)-5-{imino[(4-methoxyphenyl)amino]methyl}-4,5,6,7-tetrahydro[1,3]thiazolo[5,4-c]pyridine-2-carboxamide]", "IC50": "≥ 0.2"}
{"smiles": "CN=C(Nc1ccccc1)N1CCc2nc(C(=O)Nc3ccccc3N)sc2C1", "note": "[Example 114, N-(2-aminophenyl)-5-[anilino(methylimino)methyl]-4,5,6,7-tetrahydro[1,3]thiazolo[5,4-c]pyridine-2-carboxamide. (Dihydrochloride)]", "IC50": "≥ 0.2"}
{"smiles": "CN=C(Nc1ccc(OC)cc1)N1CCc2nc(C(=O)Nc3cc(OC)ccc3N)sc2C1", "note": "[Example 115, N-(2-amino-5-methoxyphenyl)-5-[[(4-methoxyphenyl)amino](methylimino)methyl]-4,5,6,7-tetrahydro[1,3]thiazolo[5,4-c]pyridine-2-carboxamide]", "IC50": "≥ 0.2"}
{"smiles": "Cc1ccccc1NC(=NC#N)N1CCc2nc(C(=O)Nc3ccccc3N)sc2C1", "note": "[Example 119, N-(2-aminophenyl)-5-{(cyanoimino)[(2-methylphenyl)amino]methyl}-4,5,6,7-tetrahydro[1,3]thiazolo[5,4-c]pyridine-2-carboxamide]", "IC50": "≥ 0.2"}
{"smiles": "CN(C)c1ccc(NC(=NC#N)N2CCc3nc(C(=O)Nc4ccccc4N)sc3C2)cc1", "note": "[Example 120, N-(2-aminophenyl)-5-[(cyanoimino){[4-(dimethylamino)phenyl]amino}methyl]-4,5,6,7-tetrahydro[1,3]thiazolo[5,4-c]pyridine-2-carboxamide]", "IC50": "≥ 0.2"}
{"smiles": "CCCCCNC(=NC#N)N1CCc2nc(C(=O)Nc3ccccc3N)sc2C1", "note": "[Example 121, N-(2-aminophenyl)-5-[(cyanoimino)(pentylamino)methyl]-4,5,6,7-tetrahydro[1,3]thiazolo[5,4-c]pyridine-2-carboxamide]", "IC50": "≥ 0.2"}
{"smiles": "COc1ccc(N)c(NC(=O)c2nc3c(s2)CN(C(=Nc2ccccc2)NC#N)CC3)c1", "note": "[Example 123, N-(2-amino-5-methoxyphenyl)-5-[(cyanoamino)(phenylimino)methyl]-4,5,6,7-tetrahydro[1,3]thiazolo[5,4-c]pyridine-2-carboxamide]", "IC50": "≥ 0.2"}
{"smiles": "COc1ccc(N=C(NC#N)N2CCc3nc(C(=O)Nc4cc(OC)ccc4N)sc3C2)cc1", "note": "[Example 124, N-(2-amino-5-methoxyphenyl)-5-{(cyanoamino)[(4-methoxyphenyl)imino]-methyl}-4,5,6,7-tetrahydro[1,3]thiazolo[5,4-c]pyridine-2-carboxamide]", "IC50": "≥ 0.2"}
